According to publication PMC8011784, “Chronic peptide-based GIP receptor inhibition exhibits modest glucose metabolic changes in mice when administered either alone or combined with GLP-1 agonism” (PLoS ONE, 2021):

Test system: DIO mice
Experiment: Chronic GIPA-1 study: circulating lipids, liver and fat depots in DIO mice
Assay type: in vivo, mouse
Details: day 28, n = 10
Protocol: 23-week-old male C57BL/6JRj mice (n = 40), fed a HFD (SSNIFF® diet #12492[60% fat, 20% protein, 20% carbohydrate]) for 14 weeks, were distributed into 4 test groups and received daily either vehicle, liraglutide (0.2 mg/kg/day), GIPA-1 (~4.5 mg/kg/day) or liraglutide + GIPA-1 for 4 weeks while still maintained on HFD. GIPA-1 was delivered using minipumps in order to achieve sufficient GIPR antagonism based on the properties of this peptide (Fig 2A). Liraglutide was dissolved in phosphate-buffered saline (PBS) plus 0.1% bovine serum albumin (BSA) (vehicle 1) and GIPA-1 in DMSO/propylene glycol (50/50 volume per volume) (vehicle 2). 100 μL minipumps (Alzet) were filled with GIPA-1 (30 mg/mL) or vehicle 2 and kept in 0.9% saline at 37°C overnight. The minipump was placed subcutaneously through a 1-cm long incision in the neck with the animal under isoflurane anesthesia. Animals were treated with analgesics on day 0–3 (NSAID, carprofen […] SC QD). From day 0 (first dose) through day 28, mice received one of the following four treatments per day: (1) vehicle 1 (subcutaneous injection (SC)) and continuous infusion of vehicle 2 via osmotic minipump; (2) 0.2 mg/kg liraglutide (SC) and continuous infusion of vehicle 2 via osmotic minipump; (3) vehicle 1 (SC) and continuous infusion of GIPA-1 (~4.5 mg/kg/day; 56.8 nmol/kg/h) via osmotic minipump; and (4) liraglutide (0.2 mg/kg liraglutide, SC) plus continuous infusion of GIPA-1 (~4.5 mg/kg/day) via osmotic minipump. Dose levels of GIPA-1 were based on targeting plasma exposure levels sufficient to antagonise endogenous GIP and selected based on in vitro antagonism data. Fasted (4 hrs) blood glucose and insulin levels were measured on study day -3, 14 and 27. OGTT was performed on day 21 of the study. On the day of the OGTT the fasted animals received their daily doses of vehicles and liraglutide thirty minutes before receiving a glucose bolus (2 g/kg). Blood glucose was measured before their daily dosing and at 0, 15, 30 60, 120, 180 min after glucose administration. Plasma insulin was measured at 0 and 15 min. Whole body weight and food intake were measured throughout the study period. On the termination day (day 28), liver, epididymal fat depot, mesenteric fat depot, retroperitoneal fat depot and inguinal fat depot were dissected and weighted. Blood collected from the tail vein was used for determination of free fatty acids (FFAs) plasma concentration and blood collected via cardiac puncture was used for determination of terminal plasma triglyceride (TG) and total cholesterol (TC).
Fasting blood glucose was measured using a BIOSEN c-Line glucose meter (EKF-Diagnostics), insulin was measured using the Meso Scale Diagnostics platform, TG and TC were measured using commercial kits (Roche Diagnostics) on the Cobas C-501 autoanalyzer (Roche), and FFA levels were measured using a Wako Chemicals kit on the Cobas C-501 autoanalyzer, all according to the manufacturers’ instructions. Homeostatic model assessment of insulin resistance (HOMA-IR) was calculated using the following equation: [fasting serum glucose (mmol/L) × fasting serum insulin (pmol/L) / 22.5] to assess insulin resistance.
Fig 4 The effect of GIPR antagonism alone or in combination with liraglutide on lipid homeostasis in DIO mice. […] Statistical analysis was calculated using one-way ANOVA with Dunnett’s post-hoc test. *: p< 0.05, **: p < 0.01, ***: p < 0.001, ****: p<0.0001 compared to vehicle. […]

**Q.** For liraglutide, which “circulating total cholesterol (TC)” value is on record?
**A.** significantly reduced circulating TC and liver TG concentrations

**Q.** What about the “liver TG” value of the same substance?
**A.** significantly reduced circulating TC and liver TG concentrations

**Q.** And the “plasma FFA” value?
**A.** no effect on either plasma TG or concentrations of circulating FFA

**Q.** And the “plasma TG” value?
**A.** no effect on either plasma TG or concentrations of circulating FFA

**Q.** And the retroperitoneal fat weight?
**A.** reduced in the GIPA-1 study in both the liraglutide and combination groups
